Values quoted from earlier work, collected in US20140271866A1, “TRANSDERMAL DRUG DELIVERY SYSTEM CONTAINING RIVASTIGMINE” (priority 2013, published 2014).

Details: in vivo

For `CCN(C)C(=O)Oc1cccc([C@H](C)N(C)C)c1` [Rivastigmine, rivastigmine], the half-life is listed as “about 1.5 hours”.
